Inhibition and IC50 data for six compounds are collected here from ChEMBL document CHEMBL4804281, “STK4 inhibitors for treatment of hematologic malignancies” (2020).

The target in assay [1] is Misshapen-like kinase 1 (Homo sapiens) (UniProt Q8N4C8). Description: Inhibition of MINK in human NCI-H929 cells at 10 uM by mass spectroscopic analysis relative to control. It is filed as cell-based.
For assay [2], the target named is PRKCI, protein kinase C iota (Homo sapiens) (UniProt P41743). Description: Inhibition of PKCi in human NCI-H929 cells at 10 uM by mass spectroscopic analysis relative to control.
Assay [3] deals with Calcium/calmodulin-dependent protein kinase type II subunit beta (Homo sapiens) (UniProt Q13554). Description: Inhibition of CAMK2B in human NCI-H929 cells at 10 uM by mass spectroscopic analysis relative to control. It is filed as cell-based.
Calcium/calmodulin-dependent protein kinase type II subunit beta (Homo sapiens), sequence (Q13554 whole entry): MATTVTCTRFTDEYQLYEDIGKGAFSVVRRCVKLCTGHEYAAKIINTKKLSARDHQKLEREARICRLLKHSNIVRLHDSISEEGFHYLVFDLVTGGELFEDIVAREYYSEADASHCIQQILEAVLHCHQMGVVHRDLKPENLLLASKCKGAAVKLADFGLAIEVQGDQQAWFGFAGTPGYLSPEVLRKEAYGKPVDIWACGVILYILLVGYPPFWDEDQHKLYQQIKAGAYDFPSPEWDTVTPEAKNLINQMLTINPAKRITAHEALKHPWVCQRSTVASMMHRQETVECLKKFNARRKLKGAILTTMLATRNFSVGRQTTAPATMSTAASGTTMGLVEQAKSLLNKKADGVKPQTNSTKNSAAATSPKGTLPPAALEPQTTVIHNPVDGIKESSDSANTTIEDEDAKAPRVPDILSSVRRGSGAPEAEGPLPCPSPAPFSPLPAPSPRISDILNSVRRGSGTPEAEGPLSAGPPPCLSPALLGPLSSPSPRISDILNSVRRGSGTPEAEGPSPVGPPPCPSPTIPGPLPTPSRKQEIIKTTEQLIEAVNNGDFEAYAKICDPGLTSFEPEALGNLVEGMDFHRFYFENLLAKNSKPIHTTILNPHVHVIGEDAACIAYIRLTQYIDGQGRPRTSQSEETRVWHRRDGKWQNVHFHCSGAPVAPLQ
The target in assay [4] is T1, Kinase suppressor of Ras 1 (Homo sapiens) (UniProt Q8IVT5).
T1 sequence (whole entry): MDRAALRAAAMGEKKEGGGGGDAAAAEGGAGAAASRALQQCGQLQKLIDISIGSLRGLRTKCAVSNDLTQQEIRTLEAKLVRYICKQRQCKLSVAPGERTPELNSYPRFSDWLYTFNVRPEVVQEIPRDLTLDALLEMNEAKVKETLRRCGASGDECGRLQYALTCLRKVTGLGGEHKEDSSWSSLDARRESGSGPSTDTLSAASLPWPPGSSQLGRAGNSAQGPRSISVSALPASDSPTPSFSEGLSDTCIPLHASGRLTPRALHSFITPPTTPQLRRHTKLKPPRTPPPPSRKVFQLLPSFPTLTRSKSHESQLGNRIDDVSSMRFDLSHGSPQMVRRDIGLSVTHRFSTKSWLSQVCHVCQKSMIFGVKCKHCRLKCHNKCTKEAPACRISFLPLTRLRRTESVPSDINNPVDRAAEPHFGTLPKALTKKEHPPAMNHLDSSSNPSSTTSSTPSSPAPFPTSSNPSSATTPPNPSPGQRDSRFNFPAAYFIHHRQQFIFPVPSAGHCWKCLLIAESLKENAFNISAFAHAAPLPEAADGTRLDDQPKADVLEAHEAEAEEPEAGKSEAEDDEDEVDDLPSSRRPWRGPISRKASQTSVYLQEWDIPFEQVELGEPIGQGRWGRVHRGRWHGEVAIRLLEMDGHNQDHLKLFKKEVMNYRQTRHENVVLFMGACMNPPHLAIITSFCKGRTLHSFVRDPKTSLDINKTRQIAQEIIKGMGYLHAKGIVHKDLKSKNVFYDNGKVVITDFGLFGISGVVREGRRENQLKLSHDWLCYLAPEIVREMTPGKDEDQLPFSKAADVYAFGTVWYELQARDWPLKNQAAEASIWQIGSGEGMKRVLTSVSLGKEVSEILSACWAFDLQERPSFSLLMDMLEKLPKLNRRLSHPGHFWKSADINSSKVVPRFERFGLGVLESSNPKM
Description: Inhibition of KSR1 in human NCI-H929 cells at 10 uM by mass spectroscopic analysis relative to control. The assay is classed as cell-based.

The target in assay [5] is Serine/threonine-protein kinase Nek6 (Homo sapiens) (UniProt Q9HC98). Description: Inhibition of NEK6 in human NCI-H929 cells at 10 uM by mass spectroscopic analysis relative to control. It is filed as cell-based.
The target of assay [6] is RAC-gamma serine/threonine-protein kinase (Homo sapiens) (UniProt Q9Y243). Description: Inhibition of AKT3 in human NCI-H929 cells at 10 uM by mass spectroscopic analysis relative to control. It is filed as cell-based.
RAC-gamma serine/threonine-protein kinase (Homo sapiens), sequence (Q9Y243 whole entry): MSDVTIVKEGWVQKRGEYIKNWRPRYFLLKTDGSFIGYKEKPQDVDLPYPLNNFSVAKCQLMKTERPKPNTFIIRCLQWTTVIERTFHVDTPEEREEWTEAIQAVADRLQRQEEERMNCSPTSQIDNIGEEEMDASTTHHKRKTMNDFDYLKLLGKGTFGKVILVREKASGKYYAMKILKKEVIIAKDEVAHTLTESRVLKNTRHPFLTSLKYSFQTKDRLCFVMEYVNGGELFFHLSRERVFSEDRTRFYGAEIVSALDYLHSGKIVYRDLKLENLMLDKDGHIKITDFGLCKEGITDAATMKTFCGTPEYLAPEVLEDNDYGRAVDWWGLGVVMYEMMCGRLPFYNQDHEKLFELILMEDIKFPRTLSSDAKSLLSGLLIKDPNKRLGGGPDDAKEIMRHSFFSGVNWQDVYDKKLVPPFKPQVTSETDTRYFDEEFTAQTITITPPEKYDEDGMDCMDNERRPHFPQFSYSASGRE
The target in assay [7] is Serine/threonine-protein kinase WNK2 (Homo sapiens) (UniProt Q9Y3S1). Kind of assay: Inhibition of WNK2 in human NCI-H929 cells at 10 uM by mass spectroscopic analysis relative to control. It is filed as cell-based.
Assay [8] deals with T2, Aurora kinase C (Homo sapiens) (UniProt Q9UQB9).
T2 sequence (whole entry): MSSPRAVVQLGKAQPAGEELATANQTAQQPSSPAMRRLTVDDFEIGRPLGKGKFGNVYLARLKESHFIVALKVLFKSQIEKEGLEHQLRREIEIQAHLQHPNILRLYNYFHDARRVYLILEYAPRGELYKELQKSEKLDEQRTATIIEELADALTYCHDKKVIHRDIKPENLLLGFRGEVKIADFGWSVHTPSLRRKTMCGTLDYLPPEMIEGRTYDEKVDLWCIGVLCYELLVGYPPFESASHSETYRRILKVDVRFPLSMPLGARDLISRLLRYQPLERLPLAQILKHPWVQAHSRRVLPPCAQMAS
Kind of assay: Inhibition of AURC in human NCI-H929 cells at 10 uM by mass spectroscopic analysis relative to control. The assay is classed as cell-based.

The target of assay [9] is Rho-associated protein kinase 2 (Homo sapiens) (UniProt O75116). Description: Inhibition of ROCK2 in human NCI-H929 cells at 10 uM by mass spectroscopic analysis relative to control. The assay is classed as cell-based.
Rho-associated protein kinase 2 (Homo sapiens), sequence (O75116 whole entry, looked up): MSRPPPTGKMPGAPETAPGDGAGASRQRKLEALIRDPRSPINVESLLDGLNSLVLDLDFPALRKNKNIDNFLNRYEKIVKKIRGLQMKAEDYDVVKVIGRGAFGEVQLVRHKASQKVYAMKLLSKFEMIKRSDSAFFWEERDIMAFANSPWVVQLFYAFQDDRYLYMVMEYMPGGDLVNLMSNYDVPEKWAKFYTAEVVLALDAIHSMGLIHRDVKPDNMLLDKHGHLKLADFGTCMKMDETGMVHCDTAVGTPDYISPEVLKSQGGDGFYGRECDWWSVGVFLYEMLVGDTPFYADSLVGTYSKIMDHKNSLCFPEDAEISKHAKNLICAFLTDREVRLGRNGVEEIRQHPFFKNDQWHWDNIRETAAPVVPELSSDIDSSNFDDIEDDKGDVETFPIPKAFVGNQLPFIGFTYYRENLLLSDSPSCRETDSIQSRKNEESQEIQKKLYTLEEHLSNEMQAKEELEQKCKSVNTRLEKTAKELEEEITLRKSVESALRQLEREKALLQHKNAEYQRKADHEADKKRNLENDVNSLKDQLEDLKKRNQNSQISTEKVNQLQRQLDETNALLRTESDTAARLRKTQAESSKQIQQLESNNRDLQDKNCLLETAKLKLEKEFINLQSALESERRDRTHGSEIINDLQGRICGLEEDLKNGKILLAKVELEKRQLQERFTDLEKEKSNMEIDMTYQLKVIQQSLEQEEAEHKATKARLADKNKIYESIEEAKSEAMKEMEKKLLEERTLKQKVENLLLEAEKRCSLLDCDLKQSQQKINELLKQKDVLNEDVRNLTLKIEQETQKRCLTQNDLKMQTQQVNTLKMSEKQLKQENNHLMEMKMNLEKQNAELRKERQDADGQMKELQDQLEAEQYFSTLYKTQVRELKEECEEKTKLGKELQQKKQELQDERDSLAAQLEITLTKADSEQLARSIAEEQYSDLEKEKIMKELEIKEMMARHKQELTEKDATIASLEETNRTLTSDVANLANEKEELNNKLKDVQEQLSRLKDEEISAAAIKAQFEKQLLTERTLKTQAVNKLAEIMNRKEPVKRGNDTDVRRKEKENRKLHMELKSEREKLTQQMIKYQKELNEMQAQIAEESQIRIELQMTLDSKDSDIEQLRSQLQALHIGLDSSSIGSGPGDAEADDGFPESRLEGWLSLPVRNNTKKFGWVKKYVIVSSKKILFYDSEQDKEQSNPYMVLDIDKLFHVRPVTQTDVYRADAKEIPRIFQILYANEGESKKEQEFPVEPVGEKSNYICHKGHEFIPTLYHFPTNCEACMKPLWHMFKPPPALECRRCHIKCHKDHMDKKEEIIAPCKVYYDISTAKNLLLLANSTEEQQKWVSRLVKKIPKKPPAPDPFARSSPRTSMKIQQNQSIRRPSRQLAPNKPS
The target of assay [10] is Putative phosphatidylinositol 4-kinase alpha-like protein P2 (Homo sapiens) (UniProt A4QPH2). Kind of assay: Inhibition of PI4KAP2 in human NCI-H929 cells at 10 uM by mass spectroscopic analysis relative to control. The assay is classed as cell-based.
Assay [11] addresses Serine/threonine-protein kinase 24 (Homo sapiens) (UniProt Q9Y6E0). Description: Inhibition of STK24 (unknown origin) using fluorescein-labelled Ser/Thr-07 peptide as substrate incubated for 1 hr in presence of ATP at Km concentration by Z-LYTE assay.
The target of assay [12] is T3, Mitogen-activated protein kinase 13 (Homo sapiens) (UniProt O15264).
T3 sequence (whole entry): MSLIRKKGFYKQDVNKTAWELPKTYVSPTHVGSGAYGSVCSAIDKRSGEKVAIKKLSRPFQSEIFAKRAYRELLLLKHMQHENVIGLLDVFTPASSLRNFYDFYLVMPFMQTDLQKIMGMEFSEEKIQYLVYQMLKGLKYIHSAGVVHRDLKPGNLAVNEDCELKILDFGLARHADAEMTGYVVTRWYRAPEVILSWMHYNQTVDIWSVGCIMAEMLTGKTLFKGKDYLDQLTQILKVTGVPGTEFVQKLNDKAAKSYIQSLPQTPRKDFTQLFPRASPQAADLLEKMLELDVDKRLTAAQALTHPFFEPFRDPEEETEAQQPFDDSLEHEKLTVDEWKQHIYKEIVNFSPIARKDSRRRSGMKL
Description: Inhibition of P38delta in human NCI-H929 cells at 10 uM by mass spectroscopic analysis relative to control. It is filed as cell-based.

The target of assay [13] is Calcium/calmodulin-dependent protein kinase type II subunit alpha (Homo sapiens) (UniProt Q9UQM7). Kind of assay: Inhibition of CAMK2A in human NCI-H929 cells at 10 uM by mass spectroscopic analysis relative to control. The assay is classed as cell-based.
The target in assay [14] is Mitogen-activated protein kinase 9 (Homo sapiens) (UniProt P45984). Description: Inhibition of JNK2 in human NCI-H929 cells at 10 uM by mass spectroscopic analysis relative to control. The assay is classed as cell-based.
Assay [15] addresses Cyclin-dependent kinase 18 (Homo sapiens) (UniProt Q07002). Description: Inhibition of PCTAIRE3 in human NCI-H929 cells at 10 uM by mass spectroscopic analysis relative to control. It is filed as cell-based.
Assay [16] has as its target Bone morphogenetic protein receptor type-1B (Homo sapiens) (UniProt O00238). Description: Inhibition of BMPR1B in human NCI-H929 cells at 10 uM by mass spectroscopic analysis relative to control. It is filed as cell-based.

Bone morphogenetic protein receptor type-1B (Homo sapiens), sequence (O00238 whole entry): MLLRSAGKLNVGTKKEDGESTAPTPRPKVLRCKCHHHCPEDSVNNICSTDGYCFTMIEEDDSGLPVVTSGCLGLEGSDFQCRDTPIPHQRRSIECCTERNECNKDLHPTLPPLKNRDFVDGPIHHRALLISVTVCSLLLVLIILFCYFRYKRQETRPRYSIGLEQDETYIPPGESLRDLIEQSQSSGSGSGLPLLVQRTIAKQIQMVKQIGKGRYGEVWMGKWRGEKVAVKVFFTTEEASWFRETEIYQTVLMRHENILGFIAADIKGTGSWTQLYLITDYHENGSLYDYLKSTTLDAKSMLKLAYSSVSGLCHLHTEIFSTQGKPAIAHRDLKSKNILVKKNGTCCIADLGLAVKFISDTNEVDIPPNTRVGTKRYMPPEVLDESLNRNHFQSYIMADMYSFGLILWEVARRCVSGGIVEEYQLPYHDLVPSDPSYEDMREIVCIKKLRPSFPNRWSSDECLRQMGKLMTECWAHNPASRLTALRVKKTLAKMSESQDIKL
Cyclin-dependent kinase 18 (Homo sapiens), sequence (Q07002 whole entry): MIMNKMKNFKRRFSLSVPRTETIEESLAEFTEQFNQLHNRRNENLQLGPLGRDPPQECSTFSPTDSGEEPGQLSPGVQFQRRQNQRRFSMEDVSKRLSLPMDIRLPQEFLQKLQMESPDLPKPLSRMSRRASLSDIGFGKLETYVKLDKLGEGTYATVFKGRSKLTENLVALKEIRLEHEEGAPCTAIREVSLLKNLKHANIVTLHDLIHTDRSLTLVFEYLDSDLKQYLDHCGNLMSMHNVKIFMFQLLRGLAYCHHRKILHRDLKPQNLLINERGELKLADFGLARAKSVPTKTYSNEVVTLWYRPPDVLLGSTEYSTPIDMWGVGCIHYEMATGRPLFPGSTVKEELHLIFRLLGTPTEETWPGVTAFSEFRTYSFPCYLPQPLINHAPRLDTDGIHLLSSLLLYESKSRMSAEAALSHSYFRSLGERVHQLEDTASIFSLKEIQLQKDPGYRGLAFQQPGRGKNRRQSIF
Misshapen-like kinase 1 (Homo sapiens), sequence (Q8N4C8 whole entry, looked up): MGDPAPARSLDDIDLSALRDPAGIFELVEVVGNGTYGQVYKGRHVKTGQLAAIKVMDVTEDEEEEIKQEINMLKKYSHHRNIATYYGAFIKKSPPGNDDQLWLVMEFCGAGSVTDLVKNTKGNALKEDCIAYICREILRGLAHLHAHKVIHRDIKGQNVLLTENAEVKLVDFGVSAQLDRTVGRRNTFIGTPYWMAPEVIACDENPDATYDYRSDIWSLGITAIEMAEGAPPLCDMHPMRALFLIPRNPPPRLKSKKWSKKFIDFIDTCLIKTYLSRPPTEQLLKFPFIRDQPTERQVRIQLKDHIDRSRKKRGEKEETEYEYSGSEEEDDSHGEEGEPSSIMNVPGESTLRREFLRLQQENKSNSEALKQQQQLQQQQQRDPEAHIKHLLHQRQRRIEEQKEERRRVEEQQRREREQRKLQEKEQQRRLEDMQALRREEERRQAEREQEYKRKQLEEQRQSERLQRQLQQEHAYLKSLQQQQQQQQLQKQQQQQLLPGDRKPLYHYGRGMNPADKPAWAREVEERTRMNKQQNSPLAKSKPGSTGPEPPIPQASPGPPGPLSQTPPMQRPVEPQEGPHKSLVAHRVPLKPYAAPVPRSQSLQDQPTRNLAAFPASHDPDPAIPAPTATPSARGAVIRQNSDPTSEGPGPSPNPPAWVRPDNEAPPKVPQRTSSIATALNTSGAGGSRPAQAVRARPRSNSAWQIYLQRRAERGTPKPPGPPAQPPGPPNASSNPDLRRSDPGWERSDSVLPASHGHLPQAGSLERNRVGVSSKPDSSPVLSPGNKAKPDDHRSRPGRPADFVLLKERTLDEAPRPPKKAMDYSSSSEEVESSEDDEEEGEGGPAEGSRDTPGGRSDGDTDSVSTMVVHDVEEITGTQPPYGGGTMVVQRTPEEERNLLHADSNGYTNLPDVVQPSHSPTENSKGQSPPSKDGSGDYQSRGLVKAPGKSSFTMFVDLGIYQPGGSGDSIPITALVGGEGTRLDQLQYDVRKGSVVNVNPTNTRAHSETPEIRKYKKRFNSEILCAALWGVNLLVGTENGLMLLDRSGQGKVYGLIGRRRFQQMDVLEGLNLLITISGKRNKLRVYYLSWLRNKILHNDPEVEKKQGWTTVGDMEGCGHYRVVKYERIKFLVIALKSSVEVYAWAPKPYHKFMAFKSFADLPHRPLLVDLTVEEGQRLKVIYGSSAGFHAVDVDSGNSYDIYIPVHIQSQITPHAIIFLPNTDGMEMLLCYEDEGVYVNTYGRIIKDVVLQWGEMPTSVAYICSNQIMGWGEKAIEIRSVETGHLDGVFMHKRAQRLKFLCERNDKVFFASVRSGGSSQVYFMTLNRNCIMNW

What is called inhibition is the change of the read-out against control, counted positive when it falls. The IC50 is the concentration that inhibits the measured activity by half. Consider `CN(C1CC1)S(=O)(=O)c1ccc(-c2cnc(N)c(-c3ccc4c(c3)CCNC4=O)c2)c(F)c1`, for which the inhibition in assay [1] was more than 90%; in assay [2], 0%; in [3], 0%; in assay [4], 0%; in assay [5], 0%; in assay [6], 0%. Besides, the inhibition in assay [7], in assay [8], in assay [9], in assay [10], in [12] and in [13] was 0% in each case. The inhibition in [14] is 0%. In addition, the IC50 in assay [11] was determined as 0.04 µM.

For the compound `COc1cc(NS(=O)(=O)C2CC2)ccc1-c1cnc(N)c(-c2ccc3c(c2)CCNC3=O)c1`, the inhibition in [1] worked out at 50%; in assay [2], 0%; in assay [3], 0%; in [4], 0%; in assay [5] it was 0%; in assay [7], 0%. In addition, the inhibition was 0% in [15]; 0% in [8]; 0% in assay [10]; 0% in assay [12]; 75% in assay [16]; 0% in [13]. Further, the inhibition in [14] turned out to be 0%. For the same compound, the IC50 in [11] came to 0.2 µM.

Take `Nc1ncc(-c2ccc(NS(=O)(=O)C3CC3)cc2F)cc1-c1ccc2c(c1)CCNC2=O`: the inhibition in assay [2], in [3], in assay [4], in [5], in assay [7] and in [15] was 0% throughout. Besides, the inhibition in assay [10], in assay [12], in [16], in assay [13] and in assay [14] was 0% throughout. Moreover, the IC50 in [11] was determined as 0.04 µM.

Consider `Nc1ncc(-c2ccc(NS(=O)(=O)C3CC3)cc2OC2CCCCC2)cc1-c1ccc2c(c1)CCNC2=O`, for which the inhibition in assay [1] was 50%; in assay [2], 0%; in assay [3] it was 0%; in [4], 0%; in assay [5] it was 0%; in assay [7] it was 0%. Besides, the inhibition in assay [15] is 0%; in assay [10] it was 0%; in [12], 0%; in assay [16], more than 90%; in assay [13], 0%; in [14], 0%. The IC50 in [11] is more than 0.9 µM.

With `Nc1ncc(-c2cccc3ncsc23)cc1-c1ccc2c(c1)CCNC2=O`, the inhibition in assay [1] was more than 90%; in [2], 0%; in assay [3], 0%; in assay [4], 0%; in assay [5], 0%; in assay [6], 0%. The inhibition in [7], in [8], in assay [9], in [10], in assay [12] and in assay [13] was 0% each time. Also, the inhibition in assay [14] stood at 0%. Further, the IC50 in [11] is more than 0.9 µM.

`Nc1ncc(-c2cccc([N+](=O)[O-])c2F)cc1-c1ccc2c(c1)CCNC2=O`: the inhibition was more than 90% in assay [1]; 0% in [2]; 0% in assay [3]; 0% in assay [4]; 0% in [5]; 0% in assay [6]. For the same compound, the inhibition in assay [7] is more than 100%; in assay [9], 0%; in assay [10] it was 0%; in [12], 0%; in [13], 0%; in assay [14], 0%. Also, the IC50 in [11] is more than 0.9 µM.
